Substitutions are numbered along the chain they refer to. Names and notes keep the numbering of the source. Like-named read-outs stand apart in the source and are kept apart here.
Key:
PANX1 (PANX1WT) [1] = target: T1, PANX1 (PANX1WT) (Homo sapiens, UniProt Q96RD7); assay: microscale thermophoresis; type: binding
T1 construct: full-length; C-terminal TEV site-eGFP-8xHis, GFP/His cut by TEV for purified protein; HEK293S GnTI- (BacMam), GDN-solubilised homoheptamer; transiently transfected HEK293 for patch clamp

PANX1 (PANX1WT) [2] = target: T2, PANX1 (PANX1WT) (Homo sapiens, UniProt Q96RD7, R217H); assay: whole-cell patch clamp, transfected HEK293; type: cell-based; conditions: pH 7.4, 23 °C; 100 µM in bath
T2 construct: full-length; C-terminal TEV site-eGFP-8xHis, GFP/His cut by TEV for purified protein; HEK293S GnTI- (BacMam), GDN-solubilised homoheptamer; transiently transfected HEK293 for patch clamp
T2 sequence (Q96RD7 whole entry R217H): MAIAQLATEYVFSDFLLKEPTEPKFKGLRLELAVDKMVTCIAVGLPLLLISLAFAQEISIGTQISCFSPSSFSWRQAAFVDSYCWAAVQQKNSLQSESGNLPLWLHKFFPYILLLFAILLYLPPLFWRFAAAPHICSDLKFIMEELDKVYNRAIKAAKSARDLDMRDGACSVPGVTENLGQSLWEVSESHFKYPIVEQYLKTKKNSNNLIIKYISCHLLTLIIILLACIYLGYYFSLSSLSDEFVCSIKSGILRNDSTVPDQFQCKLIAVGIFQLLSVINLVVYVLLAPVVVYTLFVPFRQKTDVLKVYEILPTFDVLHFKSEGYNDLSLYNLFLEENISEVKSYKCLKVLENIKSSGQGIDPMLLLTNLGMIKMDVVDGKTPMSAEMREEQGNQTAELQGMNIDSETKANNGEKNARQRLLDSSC

PANX3 (PANX3WT) [3] = target: T3, PANX3 (PANX3WT) (Homo sapiens, UniProt Q96QZ0); assay: whole-cell patch clamp, transfected HEK293; type: cell-based; conditions: pH 7.4, 23 °C; 100 µM in bath
T3 construct: full-length, 392 residues; C-terminal TEV site-eGFP-8xHis, GFP/His cut by TEV for purified protein; HEK293S GnTI- (BacMam), GDN-solubilised homoheptamer; transiently transfected HEK293 for patch clamp
T3 sequence (Q96QZ0 1-392): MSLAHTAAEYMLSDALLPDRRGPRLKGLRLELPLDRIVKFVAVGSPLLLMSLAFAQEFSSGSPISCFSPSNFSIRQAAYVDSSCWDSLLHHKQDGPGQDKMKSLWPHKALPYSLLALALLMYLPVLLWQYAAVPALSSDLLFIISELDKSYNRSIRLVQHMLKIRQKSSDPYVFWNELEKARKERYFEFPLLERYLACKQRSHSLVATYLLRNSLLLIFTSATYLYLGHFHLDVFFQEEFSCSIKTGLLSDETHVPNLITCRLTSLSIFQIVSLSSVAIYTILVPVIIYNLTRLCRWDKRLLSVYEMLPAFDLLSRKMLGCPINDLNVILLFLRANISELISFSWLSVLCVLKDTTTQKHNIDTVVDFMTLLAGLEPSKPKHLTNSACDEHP

PANX1 (PANX1WT) [4] = target: T4, PANX1 (PANX1WT) (Homo sapiens, UniProt Q96RD7, W74R/R75D); assay: whole-cell patch clamp, transfected HEK293; type: cell-based; conditions: pH 7.4, 23 °C; 100 µM in bath
T4 construct: full-length; C-terminal TEV site-eGFP-8xHis, GFP/His cut by TEV for purified protein; HEK293S GnTI- (BacMam), GDN-solubilised homoheptamer; transiently transfected HEK293 for patch clamp
T4 sequence (Q96RD7 whole entry W74R/R75D): as the sequence (Q96RD7 whole entry R217H) above, with W74R, R75D, H217R counted along it

PANX3 (PANX3WT) [5] = target: T3, PANX3 (PANX3WT); assay: microscale thermophoresis; type: binding; conditions: read-out: affinity
PANX1 (PANX1WT) [6] = target: T5, PANX1 (PANX1WT) (Homo sapiens, UniProt Q96RD7, K24A); assay: microscale thermophoresis; type: binding
T5 construct: full-length; C-terminal TEV site-eGFP-8xHis, GFP/His cut by TEV for purified protein; HEK293S GnTI- (BacMam), GDN-solubilised homoheptamer; transiently transfected HEK293 for patch clamp
T5 sequence (Q96RD7 whole entry K24A): as the sequence (Q96RD7 whole entry R217H) above, with K24A, H217R counted along it

PANX1 (PANX1WT) [7] = target: T6, PANX1 (PANX1WT) (Homo sapiens, UniProt Q96RD7, R75A); assay: microscale thermophoresis; conditions: read-out: binding affinity
T6 construct: full-length; C-terminal TEV site-eGFP-8xHis, GFP/His cut by TEV for purified protein; HEK293S GnTI- (BacMam), GDN-solubilised homoheptamer; transiently transfected HEK293 for patch clamp
T6 sequence (Q96RD7 whole entry R75A): as the sequence (Q96RD7 whole entry R217H) above, with R75A, H217R counted along it

PANX1 (PANX1WT) [8] = target: T2, PANX1 (PANX1WT); assay: microscale thermophoresis; conditions: read-out: apparent binding affinity
PANX1 (PANX1WT) [9] = target: T7, PANX1 (PANX1WT) (Homo sapiens, UniProt Q96RD7, R75D/W74R); assay: microscale thermophoresis; type: binding
T7 construct: full-length; C-terminal TEV site-eGFP-8xHis, GFP/His cut by TEV for purified protein; HEK293S GnTI- (BacMam), GDN-solubilised homoheptamer; transiently transfected HEK293 for patch clamp
T7 sequence (Q96RD7 whole entry W74R/R75D): as the sequence (Q96RD7 whole entry R217H) above, with W74R, R75D, H217R counted along it

[10] = target: the molecule itself; assay: cryo-EM structure; purified channel in GDN detergent, 25 mM Tris pH 8.0, 100 mM KCl, 1% glycerol, 5 mg/ml; 1 mM ATP added for PANX3; C7 symmetry imposed

Molecule: Nc1ncnc2c1ncn2[C@@H]1O[C@H](COP(=O)(O)OP(=O)(O)OP(=O)(O)O)[C@@H](O)[C@H]1O [ATP]
- Kd (PANX1 (PANX1WT) [1]; read-out: affinity): 21 ± 11 µM

Molecule: CC1(C)[C@@H](OC(=O)CCC(=O)O)CC[C@]2(C)[C@H]3C(=O)C=C4[C@@H]5C[C@@](C)(C(=O)O)CC[C@]5(C)CC[C@@]4(C)[C@]3(C)CC[C@@H]12 [carbenoxolone]
- inhibition of currents at 100 μM (PANX1 (PANX1WT) [2]): inhibition of PANX1R217H currents by CBX similar to PANX1WT
- inhibition of currents at 100 μM (PANX3 (PANX3WT) [3]): We observe weaker CBX sensitivity in PANX3, in comparison to PANX1
- inhibition of currents at 100 μM (PANX1 (PANX1WT) [4]): decreased inhibition of PANX1WR/RD currents with CBX compared to PANX1WT

Molecule: Nc1ncnc2c1ncn2[C@@H]1O[C@H](CO[P@](=O)(O)O[P@](=O)(O)O[P@@](=O)(O)S)[C@@H](O)[C@H]1O [ATP-γS]
- Kd (PANX3 (PANX3WT) [5]): 69 µM
- Kd (PANX1 (PANX1WT) [6]): 94 ± 15 µM
- Kd (PANX1 (PANX1WT) [7]): 114 ± 28 µM
- Kd (PANX1 (PANX1WT) [8]): 186 ± 70 µM
- Kd (PANX1 (PANX1WT) [1]; read-out: apparent binding affinity): 18 ± 4 µM
- Kd (PANX1 (PANX1WT) [9]): 67 ± 17 µM

B1: human pannexin 1 (PANX1), full length, wild type (natural protein, UniProt Q96RD7 1-426, looked up)
chain: MAIAQLATEYVFSDFLLKEPTEPKFKGLRLELAVDKMVTCIAVGLPLLLISLAFAQEISIGTQISCFSPSSFSWRQAAFVDSYCWAAVQQKNSLQSESGNLPLWLHKFFPYILLLFAILLYLPPLFWRFAAAPHICSDLKFIMEELDKVYNRAIKAAKSARDLDMRDGACSVPGVTENLGQSLWEVSESHFKYPIVEQYLKTKKNSNNLIIKYISCRLLTLIIILLACIYLGYYFSLSSLSDEFVCSIKSGILRNDSTVPDQFQCKLIAVGIFQLLSVINLVVYVLLAPVVVYTLFVPFRQKTDVLKVYEILPTFDVLHFKSEGYNDLSLYNLFLEENISEVKSYKCLKVLENIKSSGQGIDPMLLLTNLGMIKMDVVDGKTPMSAEMREEQGNQTAELQGMNIDSETKANNGEKNARQRLLDSSC
notes: Pannexin 1, human, UniProt Q96RD7, full length; C-terminal TEV site (ENLYFQ) lies between the protein and eGFP-8xHis; residues of the site may be left after cleavage; Only a map (no model) was deposited; also called PANX1WT; source: HEK293S GnTI- cells, BacMam virus, purified (Ni-NTA, TEV cleavage, SEC) in GDN; not shown: eGFP, C-terminal, cleaved; 8x His, C-terminal, cleaved
- stoichiometry N [10]: 7

B2: human pannexin 1 double mutant W74R/R75D (natural protein, UniProt Q96RD7 1-426, looked up)
chain: B1 chain with W74R, R75D
notes: Pannexin 1, human, UniProt Q96RD7, full length, with W74R and R75D; TEV site residues may be left after cleavage; also called PANX1_(WR/RD); PANX1 W74R/R75D; source: HEK293S GnTI- cells, BacMam virus, purified (Ni-NTA, TEV cleavage, SEC) in GDN; not shown: eGFP, C-terminal, cleaved; 8x His, C-terminal, cleaved
- binding result [10]: binds

B3: human pannexin 1 germline mutant R217H (natural protein, UniProt Q96RD7 1-426, looked up)
chain: B1 chain with R217H
notes: Pannexin 1, human, UniProt Q96RD7, full length, with the germline substitution R217H (TM3); TEV site residues may be left after cleavage; also called PANX1_(R217H); source: HEK293S GnTI- cells, BacMam virus, purified (Ni-NTA, TEV cleavage, SEC) in GDN; not shown: eGFP, C-terminal, cleaved; 8x His, C-terminal, cleaved
- binding result [10]: binds

B4: human pannexin 3 (PANX3), full length (natural protein, UniProt Q96QZ0 1-392, looked up)
chain: T3 sequence (Q96QZ0 1-392)
modifications: N-acetylglucosamine (NAG) at N71
notes: Pannexin 3, human, UniProt Q96QZ0, full length (392 residues); C-terminal TEV site (ENLYFQ) lies between the protein and eGFP-8xHis; residues of the site may be left after cleavage; Residues 1-24, 160-185 and 373-392 are not seen in the map; also called PANX3WT; source: HEK293S GnTI- cells, BacMam virus, purified (Ni-NTA, TEV cleavage, SEC) in GDN; not shown: eGFP, C-terminal, cleaved; 8x His, …
- stoichiometry N [10]: 7

From PMC10997603, “Cryo-EM structures of pannexin 1 and 3 reveal differences among pannexin isoforms” (Nature Communications, 2024)
